ChEMBL document CHEMBL3351292, “Structure-Based Design and Synthesis of Potent Cyclic Peptides Inhibiting the YAP-TEAD Protein-Protein Interaction” (ACS Med Chem Lett, 2014)
Where a SMILES comes first, the peptide text is derived from it. Bridges are numbered along the chain shown (N, C = ends). [ ]: non-standard residue; d: D form. hCys = N[C@@H](CCS)C(=O)O; Nle = CCCC[C@H](N)C(=O)O

What was measured:
[1] = biological target: T1, Transcriptional coactivator YAP1/Transcriptional enhancer factor TEF-1 (Homo sapiens, UniProt P28347); assay: Inhibition of YAP/ GST-TEAD1 interaction in human Bel-7404 cells […]; format: cell-based, Bel7404
T1 sequence (P46937 whole entry): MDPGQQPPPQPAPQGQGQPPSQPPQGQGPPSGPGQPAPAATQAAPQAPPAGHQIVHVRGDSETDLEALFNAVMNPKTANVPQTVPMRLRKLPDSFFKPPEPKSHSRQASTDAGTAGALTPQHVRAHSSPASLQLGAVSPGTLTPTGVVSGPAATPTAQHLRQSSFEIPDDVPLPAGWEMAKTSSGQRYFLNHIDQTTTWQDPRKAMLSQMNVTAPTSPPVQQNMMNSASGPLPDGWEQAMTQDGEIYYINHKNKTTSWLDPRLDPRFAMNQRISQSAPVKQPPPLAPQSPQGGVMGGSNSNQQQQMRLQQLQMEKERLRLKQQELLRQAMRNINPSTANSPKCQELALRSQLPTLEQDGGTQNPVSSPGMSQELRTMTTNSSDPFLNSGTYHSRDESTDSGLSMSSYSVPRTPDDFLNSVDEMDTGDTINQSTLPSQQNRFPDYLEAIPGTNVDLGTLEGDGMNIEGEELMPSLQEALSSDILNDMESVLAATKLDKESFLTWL
T1 sequence (P28347 whole entry): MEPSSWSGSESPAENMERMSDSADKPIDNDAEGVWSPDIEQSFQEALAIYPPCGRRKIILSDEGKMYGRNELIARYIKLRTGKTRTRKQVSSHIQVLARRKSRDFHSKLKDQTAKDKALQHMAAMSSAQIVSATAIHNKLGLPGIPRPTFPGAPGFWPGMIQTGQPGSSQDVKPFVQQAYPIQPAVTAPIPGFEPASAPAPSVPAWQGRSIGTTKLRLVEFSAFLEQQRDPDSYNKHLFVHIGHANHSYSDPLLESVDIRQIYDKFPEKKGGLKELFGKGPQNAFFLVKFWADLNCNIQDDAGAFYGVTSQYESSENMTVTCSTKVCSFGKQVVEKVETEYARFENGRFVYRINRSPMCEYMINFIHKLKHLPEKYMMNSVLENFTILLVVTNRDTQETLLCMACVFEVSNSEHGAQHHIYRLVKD

[2] = biological target: T1, Transcriptional coactivator YAP1/Transcriptional enhancer factor TEF-1; assay: Inhibition of YAP/ GST-TEAD1 (unknown origin) interaction by surface plasmon resonance assay; format: protein assay
[3] = biological target: Transcriptional coactivator YAP1/Transcriptional enhancer factor TEF-1 (Homo sapiens) (UniProt P46937+P28347); assay: Inhibition of YAP/ GST-TEAD1 (unknown origin) interaction at 50 uM by surface plasmon resonance assay; format: protein assay
Transcriptional coactivator YAP1/Transcriptional enhancer factor TEF-1 (Homo sapiens), sequence (P28347 whole entry, looked up): as the sequence (P28347 whole entry) above
Transcriptional coactivator YAP1/Transcriptional enhancer factor TEF-1 (Homo sapiens), sequence (P46937 whole entry, looked up): as the sequence (P46937 whole entry) above

Kd [1] | IC50 [2] | inhibition [3] | Structure (SMILES)
39 nM | 150 nM | – | CCCC[C@@H]1NC(=O)[C@H](CCCCN)NC(=O)[C@H](CCCNC(=N)N)NC(=O)[C@H](CC(C)C)NC(=O)[C@@H](NC(=O)[C@H](CCSC)NC(=O)[C@@H]2CCCN2C(=O)[C@@H](NC(C)=O)C(C)C)CCSSC[C@@H](C(=O)N[C@@H](CCCCN)C(=O)N2CCC[C@H]2C(=O)N2CCC[C@H]2C(=O)N[C@@H](CCC(=O)O)C(N)=O)NC(=O)[C@H](Cc2ccccc2)NC(=O)[C@H](CO)NC(=O)[C@H](C)NC(=O)[C@@H]2CCCN2C1=O
18 nM | 42 nM | – | CCCCC[C@@H]1NC(=O)[C@H](CCCCN)NC(=O)[C@H](CCCNC(=N)N)NC(=O)[C@H](CC(C)C)NC(=O)[C@@H](NC(=O)[C@H](CCSC)NC(=O)[C@@H]2CCCN2C(=O)[C@@H](NC(C)=O)C(C)C)CCSSC[C@@H](C(=O)N[C@@H](CCCCN)C(=O)N2CCC[C@H]2C(=O)N2CCC[C@H]2C(=O)N[C@@H](CCC(=O)O)C(N)=O)NC(=O)[C@H](Cc2ccccc2)NC(=O)[C@H](CO)NC(=O)[C@H](C)NC(=O)[C@@H]2CCCN2C1=O
15 nM | 25 nM | – | CCCC[C@@H]1NC(=O)[C@H](CCCCN)NC(=O)[C@H](CCCNC(=N)N)NC(=O)[C@H](CC(C)C)NC(=O)[C@@H](NC(=O)[C@H](Cc2cccc(Cl)c2)NC(=O)[C@@H]2CCCN2C(=O)[C@@H](NC(C)=O)C(C)C)CCSSC[C@@H](C(=O)N[C@@H](CCCCN)C(=O)N2CCC[C@H]2C(=O)N2CCC[C@H]2C(=O)N[C@@H](CCC(=O)O)C(N)=O)NC(=O)[C@H](Cc2ccccc2)NC(=O)[C@H](CO)NC(=O)[C@H](C)NC(=O)[C@@H]2CCCN2C1=O
– | 43000 nM | 71% | CSCC[C@H](NC(=O)[C@@H]1CCCN1C(=O)[C@@H](NC(=O)[C@@H](NC(=O)[C@H](CCC(N)=O)NC(=O)[C@@H]1CCCN1C(C)=O)[C@@H](C)O)C(C)C)C(=O)N[C@@H](CCCNC(=N)N)C(=O)N[C@@H](CC(C)C)C(=O)N[C@@H](CCCNC(=N)N)C(=O)N[C@@H](CCCCN)C(=O)N[C@@H](CC(C)C)C(=O)N1CCC[C@H]1C(=O)N[C@@H](CC(=O)O)C(=O)N[C@@H](CO)C(=O)N[C@@H](Cc1ccccc1)C(=O)N[C@@H](Cc1ccccc1)C(=O)N[C@@H](CCCCN)C(=O)N1CCC[C@H]1C(=O)N1CCC[C@H]1C(=O)N[C@@H](C)C(N)=O (Ac-PQTVPMRLRKLPDSFFKPPA-NH2)
211 nM | 1700 nM | – | CCCC[C@@H]1NC(=O)[C@H](CCCCN)NC(=O)[C@H](CCCNC(=N)N)NC(=O)[C@H](CC(C)C)NC(=O)[C@@H](NC(=O)[C@H](CCSC)NC(=O)[C@@H]2CCCN2C(=O)[C@@H](NC(C)=O)C(C)C)CCSSC[C@@H](C(=O)N[C@@H](CCCCN)C(=O)N2CCC[C@H]2C(=O)N2CCC[C@H]2C(=O)N[C@@H](CCC(=O)O)C(N)=O)NC(=O)[C@H](Cc2ccccc2)NC(=O)[C@H](CO)NC(=O)[C@H](CC(=O)O)NC(=O)[C@@H]2CCCN2C1=O (Ac-VPM[hCys]LRK[Nle]PDSFCKPPE-NH2; disulfide 4-13)
